Reference: paper PMC9821843, “Powerful Potential of Polyfluoroalkyl-Containing 4-Arylhydrazinylidenepyrazol-3-ones for Pharmaceuticals” (Molecules, 2022)
≈ marks a conversion by molar mass, not a printed value. Read-outs that look alike come from different tables or passages of the source.

Experiments:
[1] = test system: Neisseria gonorrhoeae ATCC 49226/NCTC 12700; assay: Antibacterial activity against Neisseria gonorrhoeae; assay type: cell-based; conditions: read-out: MIC against Neisseria gonorrhoeae
Method: Antibacterial activity testing was done on the growth medium Difco GC medium base (Becton Dickinson, Franklin Lakes, NJ, USA) supplemented with 1% IsoVitaleX. Dilutions of chemical compounds were carried out in the range of 250–0.12 μg/mL in 24 well sterile plates (Sarstedt, Germany). Daily cultures of control bacterial strains were identified on a VITEK MS analyzer (BioMérieux, Marcy-l’Étoile, France) by MALDI-TOF mass spectrometry. The inoculation dose of N. gonorrhoeae inoculum was 10^5 CFU/mL.

[2] = Oxygen radical absorbance capacity (ORAC-FL) assay; conditions: n.a. = inactive; i.t.s. = interferes with test system
Excerpt: We evaluated the primary antioxidant activity of synthesized 4-AHPs 5–9 in comparison with their non-fluorinated analogues 9a,b using three standard tests: ABTS, FRAP (ferric reducing antioxidant power) and ORAC (oxygen radical absorbance capacity) assays. The ABTS assay evaluates the binding of a model ABTS radical cation (ABTS^•+), which is realized by the mechanism of single electron transfer (SET) and/or hydrogen atom transfer (HAT). The FRAP assay measures the ability of compounds to reduce the ferric 2,4,6-tripyridyl-s-triazine complex [Fe(TPTZ)2]^3+ to [Fe(TPTZ)2]^2+, which occurs exclusively by the SET mechanism. The ORAC-FL assay measures the oxidative degradation of the fluorescent molecule (FL – fluorescein) after being mixed with a free peroxyl radical generator such as 2,2′-azobis-(2-methylpropionamidine) dihydrochloride (AAPH) in the presence of antioxidant (tested compound). The ORAC-FL test describes the antioxidants’ ability to yield the hydrogen atom and, consequently, it is a HAT-based assay. Trolox was used in all tests as a reference antioxidant: the antioxidant activity of the test compounds was referred to the activity of Trolox. The well-known antioxidant Edaravone was also used for comparison.
The ORAC assay was performed according to the known method, with minor variations and described by us recently.

[3] = target: T1, human erythrocyte acetylcholinesterase (AChE, EC 3.1.1.7) (Homo sapiens, UniProt P22303); assay: Inhibition of human erythrocyte acetylcholinesterase (Ellman assay); assay type: biochemical; conditions: read-out: Inhibition % at 20 µM, Human AChE
T1 construct: human erythrocyte acetylcholinesterase (AChE, EC 3.1.1.7); purchased Sigma-Aldrich (Saint Louis, MO, USA); host or cells: human erythrocytes
Excerpt: (§1) The following enzymes were purchased from Sigma-Aldrich (Saint Louis, MO, USA): porcine liver carboxylesterase (CES, EC 3.1.1.1), human erythrocyte acetylcholinesterase (AChE, EC 3.1.1.7) and equine serum butyrylcholinesterase (BChE, EC 3.1.1.8). Substrates for CES, AChE and BChE were 4-nitrophenyl acetate (4-NPA), acetylthiocholine iodide (ATCh) and butyrylthiocholine iodide (BTCh), respectively, and the colorimetric reagent for the AChE and BChE assays was 5,5’-dithio-bis-(2-nitrobenzoic acid) (DTNB) (Sigma-Aldrich). All the kinetic experiments were performed under standard conditions, according to the protocol of IPAC RAS for a reversible inhibitors study.
Reagent blanks consisted of reaction mixtures without enzyme to assess non-enzymatic hydrolysis of substrates.
Test compounds were dissolved in DMSO. Reaction mixtures contained a final DMSO concentration of 2% (v/v). […] Measurements were performed in a Bio-Rad Benchmark Plus microplate reader. Each experiment was performed in triplicate. Plots, linear regressions and values of IC50, were determined using Origin 6.1 for Windows, OriginLab (Northampton, MA, USA).

[4] = test system: Sprague-Dawley (SD) rats; assay: Hot plate test (analgesic activity); assay type: in vivo; conditions: ip, dose 15 mg/kg; for change in vivo at 15 mg/kg: Rattus norvegicus, hot plate test, rats, n.a. = inactive (p > 0.05)
Method: The hot plate test was conducted according to established guidelines on Sprague-Dawley (SD) rats (3 male and 3 female rodents per group). The compounds were intraperitoneally administered in the form of suspensions in 1% starch mucilage. Negative control group animals received vehicle only (1% starch mucilage). Diclofenac sodium (Hemofarm, Vršac, Serbia, 10 mg/kg in 1% starch mucilage solution) or metamizole sodium (PAO Biosynthesis, Sun Pharma, Penza, Russia, 15 mg/kg in 1% starch mucilage solution) were used as reference drugs. One and two hours after the injection, rats were placed on an electrically heated to 50 °C plate (Hot plate 60,200 series, TSE-systems, Bad Homburg, Germany) in a Plexiglas cylindrical restrainer (19 cm diameter × 30 cm). The nociceptive response time was measured by observing the appearance of rats’ movements (e.g., jumping, hind paw licking or shaking). Maximal cutoff time was set as 30 s regardless of the response in order to preclude skin damage.
Differences between the values of the latency period for the treated (experimental) and control groups of animals were considered significant at p ≤ 0.05.

[5] = Acute toxicity evaluation in mice (ip); conditions: CD-1, mouse, in vivo, 300 mg/kg
Method: The toxicity evaluation was performed on CD-1 mice. […] The tested compounds in 1% starch mucilage were injected intraperitoneally into three mice. Then, animals were observed during 14 days, the number of deaths was counted and % of viability calculated.

[6] = ABTS radical cation scavenging activity assay; parameters: key to ABTS•+-scavenging activity, TEAC (trolox equivalent antioxidant capacity): TEAC = ratio of compound slope to Trolox slope vs ABTS absorbance; conditions: mean ± SEM; for ABTS•+-scavenging activity, TEAC (trolox equivalent antioxidant capacity): n.a. = inactive
Method: Radical scavenging activity of the compounds was evaluated by the ABTS radical cation (ABTS^•+) scavenging assay by the ability of the compounds to decolorize the ABTS^•+ solution [112] with some modifications. Trolox was used as a reference standard. Edaravone was used as the comparison compound. All tested compounds and standards were dissolved in DMSO. ABTS (2,2′-azinobis-(3-ethylbenzothiazoline-6-sulfonic acid)) was purchased from Tokyo Chemical Industry Co. Ltd. (Tokyo, Japan). Potassium persulfate (di-potassium peroxdisulfate), Trolox® (6-hydroxy-2,5,7,8-tetramethychroman-2-carboxylic acid), ascorbic acid, DMSO and HPLC-grade ethanol were obtained from Sigma-Aldrich Chemical Co. Aqueous solutions were prepared using deionized water.
The solution of ABTS^•+ was produced by mixing 7 mM ABTS aqueous solution with 2.45 mM potassium persulfate aqueous solution in equal quantities and allowing them to react for 12–16 h at room temperature in the dark. Radical scavenging capacity of the compounds was analyzed by mixing 10 μL of compound with 240 μL of ABTS^•+ working solution in ethanol (100 μM final concentration), and after 1 h of incubation at 30 °C the decrease in absorbance was measured spectrophotometrically at 734 nm using a Bio-Rad xMark microplate UV/VIS spectrophotometer (Bio-Rad, Hercules, CA, USA). The compounds were tested in the concentration range of 5 × 10^–7–4 × 10^–4 M. Ethanol blanks were run in each assay. Values were obtained from five replicates of each sample and three independent experiments.
Antioxidant activity was calculated as Trolox equivalent antioxidant capacity (TEAC values), consisting of the ratio between the slopes obtained from the linear correlation for concentrations of the tested compounds and Trolox with absorbance of ABTS radical. For the test compounds, which reduce ABTS^•+ absorbance by more than 60% at 100 µM, we also determined IC50 values as 50% reduction of the ABTS radical. The calculations were carried out using Origin 6.1 for Windows. Results were presented as mean ± SEM, calculated using GraphPad Prism version 6.05 for Windows, GraphPad Software.

[7] = test system: Epidermophyton floccosum RCPF F 1659/17; assay: Antifungal susceptibility testing, E. floccosum; conditions: Epidermophyton floccosum, RCPFF1659/17, read-out: MIC for fungi strains inhibition, E. floccosum
Excerpt: (§2) The solvent was DMSO. […] In each test, a growth control and a sterility control were used.

[8] = test system: Candida albicans RCPF Y 401/NCTC 885/653; assay: Antifungal susceptibility testing, C. albicans; conditions: NCTC885, read-out: MIC for fungi strains inhibition, C. albicans
Excerpt: as §2

[9] = test system: Trichophyton rubrum RCPF F 1408; assay: Antifungal susceptibility testing, T. rubrum; conditions: Trichophyton rubrum, RCPFF1408, read-out: MIC for fungi strains inhibition, T. rubrum
Excerpt: as §2

[10] = target: T2, equine serum butyrylcholinesterase (BChE, EC 3.1.1.8) (Equus caballus, UniProt P81908); assay: Inhibition of equine serum butyrylcholinesterase (Ellman assay); assay type: biochemical; conditions: read-out: Inhibition % at 20 µM, Equine BChE
T2 construct: equine serum butyrylcholinesterase (BChE, EC 3.1.1.8); purchased Sigma-Aldrich (Saint Louis, MO, USA); host or cells: equine serum
Excerpt: as §1
Final concentrations of reactants were 0.33 mM DTNB, 0.02 unit/mL of AChE or BChE and 1 mM of substrate (ATCh or BTCh, respectively). Reagent blanks consisted of reaction mixtures without enzyme to assess non-enzymatic hydrolysis of substrates.
Test compounds were dissolved in DMSO. Reaction mixtures contained a final DMSO concentration of 2% (v/v). […] Substrate was then added and residual enzyme activity relative to an inhibitor-free control was measured using a Bio-Rad Benchmark Plus microplate reader (Marnes-la-Coquette, France).
Measurements were performed in a Bio-Rad Benchmark Plus microplate reader. Each experiment was performed in triplicate. Plots, linear regressions and values of IC50, were determined using Origin 6.1 for Windows, OriginLab (Northampton, MA, USA).

[11] = test system: Microsporum canis RCPF F 1643/1585; assay: Antifungal susceptibility testing, M. canis; conditions: Microsporum canis, RCPFF1643/1585, read-out: MIC for fungi strains inhibition, M. canis
Excerpt: as §2

[12] = 2 h, read-out: Latent Period Prolongation, % 2 h
[13] = 1 h, read-out: Latent Period Prolongation, % 1 h

T2 sequence (P81908 whole entry): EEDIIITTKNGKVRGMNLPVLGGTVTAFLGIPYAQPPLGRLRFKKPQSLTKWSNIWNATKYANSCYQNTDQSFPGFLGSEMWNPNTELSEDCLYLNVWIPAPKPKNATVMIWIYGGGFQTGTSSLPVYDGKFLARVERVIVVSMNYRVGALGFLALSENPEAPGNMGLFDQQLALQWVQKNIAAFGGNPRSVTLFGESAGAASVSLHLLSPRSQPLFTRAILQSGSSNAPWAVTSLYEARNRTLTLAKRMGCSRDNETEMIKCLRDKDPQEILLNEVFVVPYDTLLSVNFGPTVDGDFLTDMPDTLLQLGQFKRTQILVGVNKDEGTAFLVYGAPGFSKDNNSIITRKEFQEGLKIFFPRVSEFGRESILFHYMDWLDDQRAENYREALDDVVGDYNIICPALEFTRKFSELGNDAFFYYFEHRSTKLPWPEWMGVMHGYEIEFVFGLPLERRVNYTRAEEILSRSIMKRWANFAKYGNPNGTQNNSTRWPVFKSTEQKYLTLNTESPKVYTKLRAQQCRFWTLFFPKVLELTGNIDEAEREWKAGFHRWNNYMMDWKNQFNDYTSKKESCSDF
T1 sequence (P22303 32-617 isoform P22303-2 limits assumed): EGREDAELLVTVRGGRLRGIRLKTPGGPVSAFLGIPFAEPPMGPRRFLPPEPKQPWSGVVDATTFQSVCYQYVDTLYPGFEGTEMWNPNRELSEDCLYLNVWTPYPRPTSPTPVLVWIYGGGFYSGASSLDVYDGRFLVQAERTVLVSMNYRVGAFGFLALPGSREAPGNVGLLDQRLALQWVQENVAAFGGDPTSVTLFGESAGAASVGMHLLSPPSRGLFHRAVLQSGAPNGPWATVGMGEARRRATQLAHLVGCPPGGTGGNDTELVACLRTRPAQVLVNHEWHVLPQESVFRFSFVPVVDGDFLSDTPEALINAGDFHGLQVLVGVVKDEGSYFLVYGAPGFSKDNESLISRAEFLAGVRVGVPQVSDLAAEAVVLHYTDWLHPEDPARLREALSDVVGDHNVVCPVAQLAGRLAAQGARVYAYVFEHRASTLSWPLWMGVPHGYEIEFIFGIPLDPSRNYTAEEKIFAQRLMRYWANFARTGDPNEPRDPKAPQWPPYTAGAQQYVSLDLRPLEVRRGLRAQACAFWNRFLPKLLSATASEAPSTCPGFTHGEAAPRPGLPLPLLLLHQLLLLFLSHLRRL

Structure (SMILES) | MIC [1] | ORAC-FL (TE, antioxidant activity in Trolox equivalents) [2] | inhibition at 20 µM [3] | change in vivo at 15 mg/kg [4, 12] | survival at 14 days [5] | IC50 [6] | ABTS•+-scavenging activity, TEAC (trolox equivalent antioxidant capacity) [6] | MIC [7] | MIC [8] | MIC [9] | change in vivo at 15 mg/kg [4, 13] | inhibition at 20 µM [10] | MIC [11] | analgesic activity in the hot plate test ([4]; SD rats, 1 and 2 h)
COc1ccc(N/N=C2\C(=O)N(c3ccccc3)N=C2C(F)(F)F)cc1 [5g, (4Z)-4-(2-(4-Methoxyphenyl)hydrazinylidene)-2-phenyl-5-(trifluoromethyl)-2,4-dihydro-3H-pyrazol-3-one] | 0.9 µg/mL (≈ 2.48 µM) | 2.20 ± 0.36 | 12.3 ± 2.3% | 76.9% | 100% | 55.6 ± 2.4 µM | 0.35 ± 0.03 |  |  |  |  |  |  | 
O=C1/C(=N\Nc2ccc(F)cc2)C(C(F)(F)F)=NN1c1ccccc1 [5h, (4Z)-4-[2-(4-Fluorophenyl)hydrazinylidene]-2-phenyl-5-(trifluoromethyl)-2,4-dihydro-3H-pyrazol-3-one] | 125 µg/mL (≈ 357 µM) |  | 7 ± 1.2% | 67% | 100% |  | 0.05 ± 0.004 | > 200 µg/mL | > 200 µg/mL | > 200 µg/mL | 66% | 3.2 ± 0.6% | > 200 µg/mL | 
CCOC(=O)c1ccc(N/N=C2\C(=O)N(c3ccccc3)N=C2C(F)(F)F)cc1 [5l, (4Z)-4-[2-(4-Ethoxycarbonyl)hydrazinylidene]-2-phenyl-5-(trifluoromethyl)-2,4-dihydro-3H-pyrazol-3-one] | 31.2 µg/mL (≈ 77.2 µM) | i.t.s. | 16.7 ± 1.5% | 107% | 100% |  |  |  |  |  | 68.1% | 3.2 ± 0.8% |  | 
Cc1ccc(N/N=C2\C(=O)N(c3ccc(S(C)(=O)=O)cc3)N=C2C(F)(F)F)cc1 [5q, (4Z)-2-[4-(Methylsulfonyl)phenyl]-4-[2-(4-methylphenyl)hydrazinylidene]-5-(trifluoromethyl)-2,4-dihydro-3H-pyrazol-3-one] | > 250 µg/mL | i.t.s. | 4.3 ± 0.8% | 110% | 100% |  | 0.02 ± 0.001 |  |  |  | 104% |  |  | 
O=C1/C(=N\Nc2ccccc2Cl)C(C(F)(F)C(F)(F)F)=NN1c1ccccc1 [6c, (4Z)-4-[2-(2-Chlorophenyl)hydrazinylidene]-5-(pentafluoroethyl)-2-phenyl-2,4-dihydro-3H-pyrazol-3-one] | > 250 µg/mL |  | 3.3 ± 0.6% | 51% | 100% |  |  | > 200 µg/mL | > 200 µg/mL | 200 µg/mL (≈ 480 µM) | 75% | 6.5 ± 1% | > 200 µg/mL | 
O=C1/C(=N\Nc2c(Cl)cccc2Cl)C(C(F)(F)C(F)(F)F)=NN1c1ccccc1 [6e, (4Z)-4-[2-(2,6-Dichlorophenyl)hydrazinylidene]-5-(pentafluoroethyl)-2-phenyl-2,4-dihydro-3H-pyrazol-3-one] | 62.5 µg/mL (≈ 139 µM) |  | 6 ± 1% |  | 100% |  |  | 200 µg/mL (≈ 443 µM) | > 200 µg/mL | > 200 µg/mL |  | 6.2 ± 1.2% | > 200 µg/mL | inactive
CCOC(=O)c1ccc(N/N=C2\C(=O)N(c3ccccc3)N=C2C(F)(F)C(F)(F)F)cc1 [6g, (4Z)-4-[2-(4-Ethoxycarbonylphenyl)hydrazinylidene]-5-(pentafluoroethyl)-2-phenyl-2,4-dihydro-3H-pyrazol-3-one] | 15.6 µg/mL (≈ 34.3 µM) |  | 6.2 ± 0.9% | 73% | 100% |  |  | > 200 µg/mL | > 200 µg/mL | > 200 µg/mL | 67% | 4.2 ± 0.8% | > 200 µg/mL | 
